# Measured values: ChEMBL document CHEMBL1909046, “DrugMatrix in vitro pharmacology data”
# Legend:
# [1] = target: Beta-2 adrenergic receptor (Homo sapiens, UniProt P07550); experiment: DRUGMATRIX: Adrenergic beta2 radioligand binding (ligand: [3H] CGP-12177); format: cell membranes, CHO, Membrane; conditions: cho; Not Active = under 50% inhibition at 10 µM
# [2] = DRUGMATRIX: Phosphodiesterase PDE3 enzyme inhibition (substrate: [3H]cAMP + cAMP); format: tissue-based, Homo sapiens; conditions: platelet; Not Active = under 50% inhibition at 10 µM
# [3] = target: Sodium-dependent noradrenaline transporter (Homo sapiens, UniProt P23975); experiment: DRUGMATRIX: Norepinephrine Transporter radioligand binding (ligand: [125I] RTI-55); format: cell membranes, MDCK, Membrane; conditions: Not Active = under 50% inhibition at 10 µM
# [4] = target: Carbonic anhydrase 2 (Homo sapiens, UniProt P00918); experiment: DRUGMATRIX: Carbonic Anhydrase II enzyme inhibition (substrate: 4-Nitrophenyl acetate (4-NPA)); format: tissue-based, Erythrocyte; conditions: Not Active = under 50% inhibition at 10 µM
# [5] = target: T1, Amine oxidase [flavin-containing] A (Homo sapiens, UniProt P21397); experiment: DRUGMATRIX: Monoamine Oxidase MAO-A enzyme inhibition (substrate: Kynuramine); set-up: species or system BTI-TN-5B1-4; conditions: Not Active = under 50% inhibition at 10 µM
# T1 sequence (P21397 whole entry): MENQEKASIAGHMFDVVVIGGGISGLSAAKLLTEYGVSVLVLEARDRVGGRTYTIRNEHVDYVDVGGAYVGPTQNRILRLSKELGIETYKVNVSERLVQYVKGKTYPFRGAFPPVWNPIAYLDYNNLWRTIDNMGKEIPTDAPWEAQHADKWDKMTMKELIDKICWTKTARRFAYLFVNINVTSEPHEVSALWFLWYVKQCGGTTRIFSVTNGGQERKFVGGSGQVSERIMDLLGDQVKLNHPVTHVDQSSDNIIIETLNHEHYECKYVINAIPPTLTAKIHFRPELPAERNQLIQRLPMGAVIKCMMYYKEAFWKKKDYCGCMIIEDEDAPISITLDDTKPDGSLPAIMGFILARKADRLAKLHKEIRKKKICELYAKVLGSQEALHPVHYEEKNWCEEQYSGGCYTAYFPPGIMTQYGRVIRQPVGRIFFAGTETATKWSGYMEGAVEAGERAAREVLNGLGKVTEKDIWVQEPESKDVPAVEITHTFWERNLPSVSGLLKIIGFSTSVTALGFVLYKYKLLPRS
# Sequence of Sodium-dependent noradrenaline transporter (P23975 whole entry): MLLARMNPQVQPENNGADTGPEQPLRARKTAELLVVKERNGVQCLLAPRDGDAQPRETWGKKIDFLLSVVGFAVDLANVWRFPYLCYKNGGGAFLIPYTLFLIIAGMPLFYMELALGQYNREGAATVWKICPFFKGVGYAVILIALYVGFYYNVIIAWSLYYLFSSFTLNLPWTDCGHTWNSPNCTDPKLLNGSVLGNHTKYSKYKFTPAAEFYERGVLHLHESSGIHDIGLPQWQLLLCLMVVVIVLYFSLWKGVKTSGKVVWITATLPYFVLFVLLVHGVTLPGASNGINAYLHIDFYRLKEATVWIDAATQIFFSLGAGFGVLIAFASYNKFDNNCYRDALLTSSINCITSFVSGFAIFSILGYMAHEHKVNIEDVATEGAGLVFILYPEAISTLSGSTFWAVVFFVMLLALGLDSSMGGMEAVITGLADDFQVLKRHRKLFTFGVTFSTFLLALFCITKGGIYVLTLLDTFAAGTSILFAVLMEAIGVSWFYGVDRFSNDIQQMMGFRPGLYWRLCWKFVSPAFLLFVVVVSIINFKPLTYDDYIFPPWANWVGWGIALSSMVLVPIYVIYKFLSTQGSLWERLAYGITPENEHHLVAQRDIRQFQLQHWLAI
Molecule,IC50 [1],IC50 [2],Ki [2],IC50 ([3]; mdck),IC50 ([4]; erythrocyte),IC50 ([5]; bti-tn-5b1-4),IC50 ([3]; read-out: IC50) [nM],Ki ([3]; read-out: Ki) [nM],IC50 ([5]; read-out: IC50) [nM],IC50 ([4]; read-out: IC50) [nM],Ki [1],Ki ([3]; mdck),Ki ([4]; erythrocyte),Ki ([5]; bti-tn-5b1-4)
C#C[C@]1(O)CC[C@H]2[C@@H]3CCC4=CC(=O)CC[C@]4(C)[C@H]3CC[C@@]21C [ETHISTERONE],Not Active,Not Active,Not Active,Not Active,Not Active,Not Active,–,–,–,–,–,–,–,–
O=C(c1ccccc1F)N1CCC(Cc2ccccc2)CC1,Not Active,Not Active,Not Active,Not Active,Not Active,Not Active,–,–,–,–,–,–,–,–
O=C(O)CCNC(=O)c1ccc(/N=N/c2ccc(O)c(C(=O)O)c2)cc1 [BALSALAZIDE],Not Active,Not Active,Not Active,Not Active,Not Active,Not Active,–,–,–,–,–,–,–,–
N=C(N)c1ccc(OCCCCCOc2ccc(C(=N)N)cc2)cc1 [PENTAMIDINE],Not Active,Not Active,Not Active,–,Not Active,–,2210,2200,793,–,–,–,–,–
CN1C(=O)CN=C(c2ccccc2)c2cc([N+](=O)[O-])ccc21 [NIMETAZEPAM],Not Active,Not Active,Not Active,Not Active,Not Active,Not Active,–,–,–,–,–,–,–,–
NS(=O)(=O)c1cc(C2(O)NC(=O)c3ccccc32)ccc1Cl (centres undefined) [CHLORTHALIDONE],Not Active,Not Active,Not Active,Not Active,–,Not Active,–,–,–,677,–,–,–,–
CC(=O)OCC(=O)[C@@]1(O)CC[C@H]2[C@@H]3CCC4=CC(=O)CC[C@]4(C)[C@@]3(F)[C@@H](O)C[C@@]21C [FLUDROCORTISONE ACETATE],Not Active,Not Active,Not Active,Not Active,Not Active,Not Active,–,–,–,–,–,–,–,–
COLISTIN,Not Active,Not Active,Not Active,Not Active,Not Active,Not Active,–,–,–,–,Not Active,Not Active,Not Active,Not Active
CN1C[C@@H]2C[C@H]1CN2c1cc2c(cc1F)c(=O)c(C(=O)O)cn2C1CC1 [DANOFLOXACIN],Not Active,Not Active,Not Active,Not Active,Not Active,Not Active,–,–,–,–,–,–,–,–
C[C@]12C=CC(=O)C=C1CC[C@H]1[C@@H]3C[C@@H](O)[C@](O)(C(=O)CO)[C@@]3(C)C[C@H](O)[C@@]12F [TRIAMCINOLONE],Not Active,Not Active,Not Active,Not Active,Not Active,Not Active,–,–,–,–,–,–,–,–
CN1CCN(c2c(F)cc3c(=O)c(C(=O)O)cn(CCF)c3c2F)CC1 [FLEROXACIN],Not Active,Not Active,Not Active,Not Active,Not Active,Not Active,–,–,–,–,–,–,–,–
CC(C)(C(=O)O)c1ccc(C(O)CCCN2CCC(C(O)(c3ccccc3)c3ccccc3)CC2)cc1 (centres undefined) [FEXOFENADINE],Not Active,Not Active,Not Active,Not Active,Not Active,Not Active,–,–,–,–,–,–,–,–
CC(O)(P(=O)(O)O)P(=O)(O)O [ETIDRONIC ACID],Not Active,Not Active,Not Active,Not Active,Not Active,Not Active,–,–,–,–,–,–,–,–
CCOC(=O)c1ncn2c1CN(C)C(=O)c1cc(F)ccc1-2 [FLUMAZENIL],Not Active,Not Active,Not Active,Not Active,Not Active,Not Active,–,–,–,–,–,–,–,–
COc1ccc2c(c1OC)C(=O)O[C@@H]2[C@H]1c2c(cc3c(c2OC)OCO3)CCN1C [NOSCAPINE],Not Active,Not Active,Not Active,Not Active,Not Active,Not Active,–,–,–,–,–,–,–,–
COBALTOUS CHLORIDE,Not Active,Not Active,Not Active,Not Active,Not Active,Not Active,–,–,–,–,Not Active,Not Active,Not Active,Not Active
CC(=O)Oc1ccccc1C(=O)O [ASPIRIN],Not Active,Not Active,Not Active,Not Active,Not Active,Not Active,–,–,–,–,–,–,–,–

Molecule,IC50 [1],IC50 [2],Ki [2],IC50 ([3]; mdck),IC50 ([4]; erythrocyte),IC50 ([5]; bti-tn-5b1-4),IC50 ([3]; read-out: IC50) [nM],Ki ([3]; read-out: Ki) [nM],IC50 ([5]; read-out: IC50) [nM],IC50 ([4]; read-out: IC50) [nM],Ki [1],Ki ([3]; mdck),Ki ([4]; erythrocyte),Ki ([5]; bti-tn-5b1-4)
CCN(CC)CCNC(=O)c1ccc(N)cc1 [PROCAINAMIDE],Not Active,Not Active,Not Active,Not Active,Not Active,Not Active,–,–,–,–,–,–,–,–
Cc1c(O)cccc1C(=O)N[C@@H](CSc1ccccc1)[C@H](O)CN1C[C@H]2CCCC[C@H]2C[C@H]1C(=O)NC(C)(C)C,Not Active,Not Active,Not Active,–,Not Active,Not Active,8850,8780,–,–,–,–,–,–
Cc1cccc(C)c1NC(=O)C1CCCCN1C (centres undefined) [MEPIVACAINE],Not Active,Not Active,Not Active,Not Active,Not Active,Not Active,–,–,–,–,–,–,–,–
O=c1[nH]c(=O)n([C@H]2C[C@H](O)[C@@H](CO)O2)cc1F [FLOXURIDINE],Not Active,Not Active,Not Active,Not Active,Not Active,Not Active,–,–,–,–,–,–,–,–
O=C(O)CC(O)(CC(=O)O)C(=O)O [CITRIC ACID],Not Active,Not Active,Not Active,Not Active,Not Active,Not Active,–,–,–,–,–,–,–,–
Cc1cc(O)cc(C)c1Cl [CHLOROXYLENOL],Not Active,Not Active,Not Active,Not Active,Not Active,–,–,–,1830,–,–,–,–,–
O=C(O)CCCc1cccs1,Not Active,Not Active,Not Active,Not Active,Not Active,Not Active,–,–,–,–,–,–,–,–
CCCNC(=O)NS(=O)(=O)c1ccc(Cl)cc1 [CHLORPROPAMIDE],Not Active,Not Active,Not Active,Not Active,Not Active,Not Active,–,–,–,–,–,–,–,–
CC(=O)OC[C@H]1O[C@@H](n2ncc(=O)[nH]c2=O)[C@H](OC(C)=O)[C@@H]1OC(C)=O [AZARIBINE],Not Active,Not Active,Not Active,Not Active,Not Active,Not Active,–,–,–,–,–,–,–,–
NCCCNCCSP(=O)(O)O [AMIFOSTINE],Not Active,Not Active,Not Active,Not Active,Not Active,Not Active,–,–,–,–,–,–,–,–
CC(C)(C)NCC(O)COc1cccc2c1CC(O)C(O)C2 (centres undefined) [NADOLOL],Not Active,Not Active,Not Active,Not Active,Not Active,Not Active,–,–,–,–,–,–,–,–
COc1ccnc(C[S+]([O-])c2nc3ccc(OC(F)F)cc3[nH]2)c1OC (centres undefined) [PANTOPRAZOLE],Not Active,Not Active,Not Active,Not Active,Not Active,Not Active,–,–,–,–,–,–,–,–
CCCCC1=NC2(CCCC2)C(=O)N1Cc1ccc(-c2ccccc2-c2nnn[nH]2)cc1 [IRBESARTAN],Not Active,Not Active,Not Active,Not Active,Not Active,Not Active,–,–,–,–,–,–,–,–
COC(=O)Nc1nc2cc(C(=O)c3ccc(F)cc3)ccc2[nH]1 [FLUBENDAZOLE],Not Active,Not Active,Not Active,Not Active,Not Active,Not Active,–,–,–,–,–,–,–,–
Cc1ccc(C)c(OCCCC(C)(C)C(=O)O)c1 [GEMFIBROZIL],Not Active,Not Active,Not Active,Not Active,Not Active,Not Active,–,–,–,–,–,–,–,–
C[N+](C)(C)C[C@H](O)CC(=O)[O-] [LEVOCARNITINE],Not Active,Not Active,Not Active,Not Active,Not Active,Not Active,–,–,–,–,–,–,–,–
CNC1=Nc2ccc(Cl)cc2C(c2ccccc2)=[N+]([O-])C1 [CHLORDIAZEPOXIDE],Not Active,Not Active,Not Active,Not Active,Not Active,Not Active,–,–,–,–,–,–,–,–
